# According to US20230022200A1, “DRUG THAT PREVENTS DIALYSIS SHIFT OR RENAL DEATH” (Toray Industries, Inc., priority 2019, published 2023):
# Read-outs that look alike come from different tables or passages of the source.
# Assays:
# [1] = test system: chronic renal failure patients with primary glomerular disease and nephrosclerosis as primary diseases; assay: CASSIOPEIR trial: time to dialysis shift or renal death, hazard ratio of drug and placebo by Cox proportional hazard model; format: in vivo, human
# Method: For the analysis, the full analysis set and Intention-To-Treat (ITT) defined in Nakamoto et al., BMC Nephrology were used, and the hazard ratio (HR) of the drug and placebo was calculated by the Cox proportional hazard model. A lower HR value indicates a higher effectiveness of the drug.
# A data set obtained in the CASSIOPEIR trial according to the protocol described in Nakamoto et al., BMC Nephrology was used. Summarizing the protocol of the CASSIOPEIR trial, the targets are chronic renal failure patients with primary glomerular disease and nephrosclerosis as primary diseases, and a BPS sustained-release tablet, TRK-100STP (the same preparation as Careload (trademark) LA Tablets 60 μg (Toray Industries, Inc.)), is administered at 120 μg or 240 μg as BPS per day in two divided doses, morning and evening. Further, this trial was a multicenter, randomized, placebo-controlled, double-blind comparative trial, and carried out in Japan, China, South Korea, Taiwan, Hong Kong, Malaysia, and Thailand.
# The duration of drug administration was 2 to 4 years, and the number of patients underwent randomization was 892, and the trial was conducted in 160 sites. Further, the ITT population was the primary analysis target population. The primary endpoint was the time to occurrence of the renal composite endpoint defined by doubling of serum creatinine or end-stage renal disease. The guidelines (2013) of the Japanese Society for Dialysis Therapy were used as a reference to determine the time to shift to dialysis. Specifically, according to the policy that “even with adequate conservative treatment, progressive deterioration of renal function is observed, and the need arises when GFR<15 ml/min/1.73 m^2. However, the introduction of actual blood dialysis is determined by comprehensively judging the symptoms of renal failure, activity in daily life, and nutritional status, and a decision is made when these cannot be avoided except by dialysis therapy,” and finally based on the judgment of the investigator, the time to shift to dialysis and the time to reach renal death were determined. The term “dialysis” as used herein includes peritoneal dialysis, in addition to blood dialysis.
# [2] = test system: chronic renal failure patients with primary glomerular disease and nephrosclerosis as primary diseases; conditions: whole trial, serum creatinine 2.0 to 4.5 mg/dl at entry; 120 μg or 240 μg BPS administration group; cited from earlier work
# [3] = cited from earlier work
# [4] = test system: chronic renal failure patients with primary glomerular disease and nephrosclerosis as primary diseases; conditions: twice a day for 6 months, cited from earlier work
# [5] = test system: patients with chronic renal failure; conditions: cited from earlier work
# renal failure model rats = conditions: rat, in vivo; cited from earlier work
# [6] = test system: cats with spontaneous chronic kidney disease; conditions: in vivo; cited from earlier work
# [7] = test system: chronic renal failure rat models; conditions: combined use with ARBs and ACEIs; cited from earlier work
structure (smiles),measurement,setting,value
"CC#CCC(C)[C@H](O)/C=C/[C@@H]1[C@H]2c3cccc(CCCC(=O)[O-])c3O[C@H]2C[C@H]1O.[Na+] (stereo partly drawn) [BPS, Beraprost sodium]","HR, time to dialysis shift","[1]; 240 μg per day, ACEI used in combination (except patients who further used ARB), all subjects, P value 0.0994",0.60
same,"HR, time to dialysis shift","[1]; 240 μg per day, ACEI used in combination, Japanese patients, P value 0.0882",0.49
same,"HR, time to dialysis shift","[1]; 240 μg, ARB in combination, no ACEI, Japanese partial population, P value 0.3597",0.79
same,"HR, time to dialysis shift","[1]; 240 μg, ARB in combination, no ACEI, P value 0.5401",0.88
same,"HR, dialysis shift","[1]; Japanese patients, BMI less than 23, 240 μg, P value 0.0048",0.38
same,"HR, dialysis shift","[1]; Japanese patients, BMI less than 23 and serum albumin less than 3.8 g/dl",0.29
same,"HR, dialysis shift","[1]; Japanese patients, serum albumin less than 3.8 g/dl, 240-μg administration, P value 0.1567",0.50
same,"HR, time to dialysis shift","[1]; plasma BPS 50 pg/ml or more confirmed, eGFR 15 or more and less than 45 ml/min/1.73 m^2 (CKD stages 3b and 4), P value 0.0368",0.59
same,"HR, time to dialysis shift","[1]; plasma BPS 50 pg/ml or more confirmed, serum creatinine less than 3 mg/dl, P value 0.0251",0.46
same,renal composite endpoints and time to shift to dialysis,[2],not minimized at all
same,Cmax and AUC in renal damage patients compared to healthy subjects,[3]; Shimamura et al.,elevated
same,half-life in blood,[3]; in vivo,about 1 hour
same,increase in serum creatinine level during the administration period compared to before the start of administration,[4]; 120-μg group,1.069 times
same,increase in serum creatinine level during the administration period compared to before the start of administration,[4]; 240-μg group,1.064 times
same,slope of the time-varying straight line of the reciprocal of the serum creatinine level,[5]; 20 μg per dose three times a day for 6 months,becomes gentle
same,shift to dialysis,"[5]; serum creatinine 1.9 mg/dl or less before start, 20 μg three times a day",did not shift to dialysis for up to 54 months
same,effect of BPS,[5]; serum creatinine 2.2 mg/dl or more (within the 1.9 to 2.8 mg/dl group),not observed
same,time to shift to dialysis,"[5]; serum creatinine 2.8 mg/dl or more before start, 20 μg three times a day",≤ 24 months
same,renal tissue damage,renal failure model rats,reduces renal tissue damage
same,serum creatinine levels,renal failure model rats,suppresses the increase in serum creatinine levels
same,renal function,[6],suppresses the decline in renal function
same,effect of angiotensin inhibitors to suppress the progression of renal damage (increase in serum creatinine levels),[7],enhances the effect of the angiotensin inhibitors
"CC#CC[C@H](C)[C@H](O)/C=C/[C@@H]1[C@H]2c3cccc(CCCC(=O)[O-])c3O[C@H]2C[C@H]1O.[Na+] [BPS-314d, sodium (+)-(1R,2R,3aS,8b S)-2,3,3a,8b-tetrahydro-2-hydroxy-1-[(E)-(3S,4S)-3-hydroxy-4-methyl-1-octen-6-ynyl]-1H-cyclopenta[b]benzofuran-5-butyrate]",Cmax of BPS-314d in plasma relative to BPS,[3]; when BPS is administered to a human,¼
same,AUC of BPS-314d in plasma relative to BPS,[3]; when BPS is administered,¼
